Common to all, as to type: cell-based
The target of experiment [1] is T1, G protein-coupled estrogen receptor (GPER) (Homo sapiens, UniProt Q99527).
T1 construct: siRNA was used to knock-down expression of GPER; endogenous in cells; host or cells: HL-60 (human myelocytic leukemia) cells
Kind of experiment: calcium mobilization assay in HL-60 cells (Indo-1AM). The conditions noted are these: triplicate runs on triplicate plates, read-out: EC50 (Ca^2+). The method, then:
For the calcium mobilization studies, Human Myelocytic Leukemia (HL-60) cells were grown in phenol red free media containing 10% activated fetal bovine serum (FBS), 1% Pen-Strep, and 1% Glutamax. Cells were grown to no more than 1×10^6 cells/mL to prevent differentiation before being split. Prior to assay cells were transferred to phenol red free media containing charcoal-stripped FBS. On the day of the assay cells were centrifuged down at 16.4 G for 5 minutes and washed with 50:1 HBSS/HEPES. Cells were resuspended at 1×10^7 cells/mL in 50:1 HBSS/HEPES. To the resuspended cells, […] pluronic acid and 5 uM of fluorescent calcium indicator, Indo-1AM, were added. The dye solution was incubated for 0.5 hrs at room temperature with rocking. After 30 minutes cells were spun down, and resuspended in 50:1 HBSS/HEPES. Cells were placed on ice for at least 5 minutes and then resuspended in 8.5 mL of 50:1 HBSS/HEPES for agonism assays. For agonism assays 160 μL of cell suspension were added to a 96-well plate and were incubated at […] for 20 minutes in a FlexStation® 3 plate reader (Molecular Devices). Inside the plate reader, 40 μL of agonist were added to each well and excited with 350 nm and read at emissions of 405 nm and 490 nm.
(§1) Calcium mobilization signal was assessed with the use of 0.1% pluronic acid and 5 μM Indo-1AM, a ratiometric dye. The EC50 values were determined based upon triplicate runs on triplicate plates. […] Cyclic AMP formation through the Gi/o-pathway was monitored utilizing a homogenous time-resolved fluorescence assay purchased from CisBio. A triplicate was performed and an EC50 value was calculated. […] The EC50 values were determined based upon triplicate runs on a triplicate plates.
For orientation: Calcium assays in cells follow changes in intracellular calcium, usually with a dye or a luminescent sensor.

Experiment [2] has as its target T1, G protein-coupled estrogen receptor (GPER). Description: HTRF cAMP formation assay in HL-60 cells. The note with it: values with * unexplained. The method, then:
For cAMP formation studies to determine potentcy, a homogeneous time resolved fluorescence (HTRF®) components for cAMP was purchased by CisBio (Bedford, MA). HL-60 cells were grown in 10% charcoal-stripped RPMI media for 72 hours prior to assays. Cells were centrifuged and counted with a hemocytometer from Hausser Scientific (Horsham, PA). The total number of cells needed to complete the assay was determined based upon 8,000 cells/well. The determined number of cells was diluted in 5:1 (5×) stimulation buffer contain 500 μM of 3-isobutyl-1-methylxanthine (IBMX) (Sigma Aldrich, Saint Louis, MO). To an HTRF 96-well low volume white plate from CisBio, 2 μL of (5×) agonist was added to the designated wells, followed by 8 μL of col cell suspension. Two controls were run during the experiment to establish basal cAMP formation and […] cAMP with the use of 20 μM forskolin. Cells were covered with a clear plastic film and incubated at 37° C. for 15 mins. During the 15 minutes incubation a 4:1 solution of lysis buffer to dye was prepared individually. After the 15 minute incubation 5 μL of lysis buffer/cAMP-d2 (acceptor) and 5 μL of lysis buffer/monocolonal anti-cAMP Eu3^+ cryptate (donor) were added to all wells. Once added, the plate was sealed, covered with aluminum foil, and incubated at room temperature for 30 mins. After the allotted time cells were read using Flexstation3 and with λex 314 nm and λem 665 nm/λem 620. Antagonism assay format varied slightly. […] To the plate, 2 μL of (5×) antagonist were added dose wise followed by the addition of 6 μL of cold cell suspension to all wells. Controls from the agonism assay remained the same in the antagonism assay. Cells and antagonists were incubated for 20 minutes at 37° C. […] Similar to the agonism assay a 4:1 ratio of lysis buffer to donor/acceptor were prepared. Following the previous incubation period, 5 μL of lysis buffer/cAMP-d2 (acceptor) and 5 μL of lysis buffer/monocolonal anti-cAMP Eu3^+ cryptate (donor) were added to all wells. Cells were allowed to equilibrate at room temperature for 30 minutes before being read at λex 314 nm and λem 665 nm/λem 620.
as §1

The target in a further experiment is T2, GPER (Homo sapiens, UniProt Q99527).
T2 construct: siRNA was used to knock-down expression of GPER; endogenous in cells; host or cells: HL-60 (human myelocytic leukemia) cells
T2 sequence (Q99527 whole entry): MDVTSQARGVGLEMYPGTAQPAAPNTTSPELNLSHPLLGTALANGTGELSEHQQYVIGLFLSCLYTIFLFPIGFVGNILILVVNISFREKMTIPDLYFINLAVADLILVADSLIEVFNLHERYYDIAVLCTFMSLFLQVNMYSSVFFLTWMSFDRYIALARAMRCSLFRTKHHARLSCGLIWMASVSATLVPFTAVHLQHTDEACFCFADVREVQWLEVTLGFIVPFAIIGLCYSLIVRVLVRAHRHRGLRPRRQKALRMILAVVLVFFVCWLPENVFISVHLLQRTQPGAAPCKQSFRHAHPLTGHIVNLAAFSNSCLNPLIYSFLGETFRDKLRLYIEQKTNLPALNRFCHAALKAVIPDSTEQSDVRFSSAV
Description: calcium mobilization assay, agonists tested against EC50 of GPER antagonist G-36. The conditions noted are these: for change in calcium efflux in response to G-36: agonist at 100 nM against EC50 of G-36, normalized; for calcium signal when antagonized with G-36: concentration not given. The method, then: Each signal was normalized to the baseline signaling of G-36 and the maximum signal achieved by the specific agonist. Results are shown at 100 nM.
Calcium mobilization signal was assessed with the use of 0.1% pluronic acid and 5 μM Indo-1AM, a ratiometric dye. The EC50 values were determined based upon triplicate runs on triplicate plates. […] Cyclic AMP formation through the Gi/o-pathway was monitored utilizing a homogenous time-resolved fluorescence assay purchased from CisBio. A triplicate was performed and an EC50 value was calculated. […] The EC50 values were determined based upon triplicate runs on a triplicate plates. To confirm that calcium efflux originated from activation of the G protein-coupled estrogen receptor (GPER), a known selective antagonist, G-36 was used to antagonize the signal. […] Additional data can be found in FIG. 9. […] Without wishing to be bound by any theory, it is believed that within the new functionalization of the scaffold the lone pair on the oxygen of furfuran ring system and the nitrogen on pyridinyl ring system work to activate the receptor. […] Based upon neurite outgrowth studies and without wishing to be bound by any theory, it is believed that the compounds may aid in the elongation and connectivity of neurons. This has implication in a variety of neurodegenerative diseases, such as Alzheimer's disease and Parkinson's disease, but also psychiatric illnesses including Austism and Schizophrenia.

In experiment [3] the test system is E18 embryonic rat cortical neurons. Description: neurite outgrowth in E18 embryonic rat neurons. The note with it: for neurite outgrowth with GPER antagonist G-15: 100 nM agonist plus 100 nM G-15; for neurite outgrowth: 100 nM agonist, 72 hours, compared to vehicle control.

T1 sequence (Q99527 whole entry): as above

The EC50 is the concentration giving half of the maximal effect. With `CC(C)c1ccc(NCc2ccc(C3OCCO3)o2)c(C2CCCCC2)c1` [Compound 3], the values for the EC50 in experiment [1] and in experiment [2] were 94.4 ± 11.8 nM and 948 ± 272 nM, respectively. Besides, the “change in calcium efflux in response to G-36” value (from here on “change in calcium efflux”) on GPER is “significant reduction”.
For `CC(C)c1ccc(NCc2ccc(C3CCCCO3)o2)c(C2CCCCC2)c1` (stereo not drawn) [Compound 4] the same measures were 38.7 ± 12.9 nM, 290 ± 58 nM and “significant reduction”.
As for `CCOCc1ccc(CNc2ccc(C(C)C)cc2C2CCCCC2)o1` [Compound 5], the EC50 in experiment [1] is 50.8 ± 5.81 nM. In experiment [2], this compound gave an EC50 of 389 ± 61.6 nM. Besides, at GPER, the “change in calcium efflux” value is “statistically significant decrease” and the “calcium signal when antagonized with G-36” value is “reduced to basal response”. Besides, in experiment [3], the “neurite outgrowth with GPER antagonist G-15” value is given as “reduction in signal” and the neurite outgrowth result is reported as “statistically significant increase”.
`COc1ccc(CNc2ccc(C(C)C)cc2C2CCCCC2)cn1` [Compound 6]: the EC50 amounted to 52.1 ± 12.1 nM in experiment [1] and 1250 ± 304 nM in experiment [2].
Regarding `COCc1ccc(CNc2ccc(C(C)C)cc2C2CCCCC2)o1` [Compound 7], the EC50 in experiment [1] came to 60.1 ± 18.2 nM. Also, in experiment [2], the EC50 is 830 ± 273 nM. Besides, at GPER, the “change in calcium efflux” value is “statistically significant decrease” and the “calcium signal when antagonized with G-36” value is listed as “reduced to basal response”.
As to `CC(C)c1ccc(NCc2ccoc2)c(C2CCCCC2)c1` [Compound 26], in experiment [3], the “neurite outgrowth with GPER antagonist G-15” value is given as “significantly diminished” and the neurite outgrowth entry is given as “statistically significant increase”.
With `CCOCc1ccc(CNc2ccc(C(C)C)cc2C2CCCCC2)o1` [Compound 37], in experiment [3], the “neurite outgrowth with GPER antagonist G-15” value is “significantly diminished” and the neurite outgrowth entry is recorded as “statistically significant increase”.
For the compound `CC(=O)c1ccc2c(c1)C1C=CCC1C(c1cc3c(cc1Br)OCO3)N2` (stereo not drawn) [Compound G-1, reference compound], in experiment [3], the “neurite outgrowth with GPER antagonist G-15” value is “reduction in signal” and the neurite outgrowth entry is listed as “statistically significant increase”.

The values above are taken from patent publication US12037327B2, “Compounds and methods targeting GPER for treatment of diseases associated with calcium” (Saint Louis University, priority 2018, dated 2024).
